Experimental findings from PMC8269107, “Lipidation of Temporin-1CEb Derivatives as a Tool for Activity Improvement, Pros and Cons of the Approach” (International Journal of Molecular Sciences, 2021) are described below.

Broadly, the MIC is the lowest concentration found to suppress growth. The share remaining is what is left of the initial amount, in per cent. Low values mean a greater loss, high ones greater stability.

The subject of data set [1] is S. aureus PCM 2054. Description: MIC, broth microdilution. Type of data set: cell-based, Staphylococcus aureus. To be noted: S. aureus PCM 2054, standard Mueller-Hinton broth, 24 h. The source says: (§1) Escherichia coli (PCM 2057 = ATCC 25922), Staphylococcus aureus (PCM 2054 = ATCC 25923), Staphylococcus epidermidis (PCM 2118 = ATCC 14990), Bacillus subtilis (PCM 2224 = ATCC 9799), Bacillus cereus (PCM 482 = ATCC 10702) and Pseudomonas aeruginosa (PCM 499 = ATCC 10145) were obtained from the Polish Collection of Microorganisms. Fungi strains Candida albicans (CCM 8186 = CNTC 49/64), Candida glabrata (CCM 8270 = ATCC 90030), Candida parapsilosis (CCM 8260 = ATCC 22019) and Candida krusei (CCM 8271 = ATCC 6258) were acquired from the Czech Collection of Microorganisms. S. aureus USA300 (wild type strain), the reference strain of Klebsiella pneumoniae (ATCC 13883) and clinical isolates of Pseudomonas aeruginosa (PA1, PA2) collected from nonrelated patients admitted to the Stefan Zeromski Specialist Municipal Hospital in Krakow (Poland) were kindly provided by the research group of the Department of Microbiology, Faculty of Biochemistry, Biophysics and Biotechnology, Jagiellonian University, Krakow, Poland.
(§2) Luria-Bertani broth (LB) and Sabouraud Dextrose broth (SB) (Biocorp, Poland) were used for cultivation of bacteria and fungi strains, respectively. The antimicrobial activity of the peptides were analyzed through determination of MIC (minimal inhibitory concentration) parameters according to Clinical and Laboratory Standards (CLSI) guidelines developed for aerobic bacteria and yeasts, respectively. Mueller-Hinton broth (MHB) was used as the working medium for all bacterial strains, while in the case of fungi, RPMI-1640 (with L-glutamine, without sodium bicarbonate) growth medium buffered with MOPS (morpholinepropanesulfonic acid) and supplemented with 2% glucose was used. Inoculum was prepared from freshly grown cultures of microorganisms at their exponential phase of growth. […] Plates were then incubated for 24 h at 37 °C in the case of bacteria and at 35 °C in the case of fungi. After that time, absorbance was read at 590 nm with a Perkin Elmer plate reader. Cultures without peptide were treated as positive control, while uninoculated media were defined as negative control. All measurements were run at least in triplicate.
(Dilution methods test growth across graded concentrations, often in twofold steps.)

The subject of data set [2] is P. aeruginosa PA1. In kind it is cell-based, Pseudomonas aeruginosa.
Description: as §1, §2

Data set [3] concerns P. aeruginosa PA2. Type of data set: cell-based, Pseudomonas aeruginosa.
Description: as §1, §2

Data set [4] has as its system S. aureus USA300. Type of data set: cell-based, Staphylococcus aureus.
Description: as §1, §2

For data set [5], the system named is K.pneumoniae ATCC 13883. In kind it is cell-based, Klebsiella pneumoniae.
Description: as §1, §2

A short description of data set [6]: ITC, binding to zwitterionic membrane. Particulars: POPC LUVs, 25 °C. How it is done:
The ITC experiments were performed according to the previously reported protocol in PBS (pH 7.4) at 25 °C using an AutoITC isothermal titration calorimeter (MicroCal Inc., Northampton, USA) with a 1.4491-mL sample and reference cells filled with distilled water. In each experiment, 29 injections of 10.02 µL each (2 µL for the first only) of a liposome solution at a concentration of 1.31 mM were added into a 0.05 mM and/or 0.1 mM peptide solution. An initial 2-μL injection was discarded from each dataset in order to remove the effect of titrant diffusion across the syringe tip during the equilibration process. Each injection lasted 20 s. The titrant was injected at 4 min intervals to ensure that the titration peak returned to the baseline before the next injection. To ensure a homogeneous mixing in the cell, the stirrer speed was kept constant at 300 rpm.
A complete binding of the peptide to lipid vesicles provides the possibility for determination of the total binding enthalpy (∆H) as well as a binding constant (Ka), reflecting the affinity of the lipopeptide to liposomes, stoichiometry of binding (n), that is, the number of phospholipids per peptide, by fitting the titration result data to one set of sites’ model using Origin 7 from MicroCal. Changes in entropy (∆S) and the Gibbs free energy (∆G) were calculated from Equation (1), where factor 55.5 is the molar concentration of water, R is the gas constant (1.986 cal·mol^−1·K^−1) and T is the absolute temperature:∆G = -RTln(55.5Ka) = ∆H-T∆S(1)
The liposomes for ITC experiments were made of POPC or POPG lipids. The lipids were dissolved in a chloroform:methanol (2:1; v/v) mixture, evaporated under nitrogen and desiccated under vacuum overnight to remove any residual solvents. Afterwards, the dry lipid film was resuspended in a phosphate buffer solution and shaken for 2 h at room temperature (phase transition point, Tm = −2 °C) to obtain multilamellar vesicles (MLVs). […]
Background: ITC needs no label: the signal is the heat of the interaction.

For data set [7], the system named is S. aureus PCM 2054. Type of data set: cell-based, Staphylococcus aureus. To be noted: S. aureus PCM 2054, Mueller-Hinton broth + 1% human serum. How it is done: Additionally, we performed a comparative analysis of MICs obtained for the tested compounds against S. aureus PCM2054 in two types of growth medium, i.e., the standard MHB and MHB supplemented with 1% human serum and in the absence of 1% serum. The assay was performed as described in 4.3.1.

A short description of data set [8]: Serum stability in 25% human serum (RP-UPLC). Particulars: male, amount of the intact compound, after 5 h of incubation in 25% human serum, 37 °C. How it is done:
At the beginning of the experiment, 25% human serum (human serum, from human male AB plasma, Sigma-Aldrich) was centrifuged at 12,000 rpm for 10 min in order to remove the excessive amount of lipids in the serum preparation, and the supernatant was collected and incubated at 37 °C for 15 min under shaking. The assay was initiated upon the addition of the peptide to the serum yielding a final peptide concentration of 75 µg/mL. The 50 µL aliquots of the incubated mixtures were taken at the following time intervals: 0, 30, 60, 120, 240 and 300 min. The aliquots were mixed with 50 µL of absolute ethanol, incubated on ice for 15 min to precipitate serum proteins and then centrifuged (12,000 rpm, 10 min). The supernatants were collected and lyophilized. Dry samples were further dissolved in 100 µL of HPLC-grade water and then analyzed. […]
RP-UPLC analysis was performed using Nexera system (Shimadzu Europe GmbH, Duisburg, Germany) with C12 Jupiter Proteo column (150 × 2 mm, 90Å, 4 micron) (Phenomenex, USA) applying a linear aqueous acetonitrile gradient 1–80%B in 20 min using solutions A (0.1% TFA in water) and B (0.1%TFA in 80% acetonitrile) with a flow rate 0.6 mL/min and detection at 220 nm. The quantity of the intact peptide at each time point was expressed as a percentage of the peak area with respect to time “zero” (100%).

Where [9] appears, read: P. aeruginosa PA1 clinical isolate.
[10] abbreviates: P. aeruginosa PA2 clinical isolate.

≈ marks a conversion by molar mass, not a printed value. Like-named read-outs stand apart in the source and are kept apart here. Where a SMILES comes first, the peptide text is derived from it. [ ]: non-standard residue; d: D form. The star is where a group is joined. Palmitoyl = CCCCCCCCCCCCCCCC(=O)*; Lauroyl = CCCCCCCCCCCC(=O)*; Pentanoyl = CCCCC(=O)*; AEEA = NCCOCCOCC(=O)O; Ahx = NCCCCCC(=O)O; βAla = NCCC(=O)O Some results are limits rather than exact numbers.

In turn, `CC[C@H](C)[C@H](NC(=O)CCCCCN)C(=O)N[C@@H](CCCCN)C(=O)N[C@@H](CCCCN)C(=O)N[C@H](C(=O)N[C@@H](CC(C)C)C(=O)N[C@@H](CO)C(=O)N[C@@H](CCCCN)C(=O)N[C@H](C(=O)N[C@@H](CCCCN)C(=O)N[C@@H](CCCCN)C(=O)N[C@@H](CC(C)C)C(=O)N[C@@H](CC(C)C)C(N)=O)[C@@H](C)CC)[C@@H](C)CC` [AHX-DK5] (H-[Ahx]IKKILSKIKKLL-NH2) yielded an MIC100 in data set [1] of over 50 mg/L.

As to `CCCCCCCCCCCC(=O)NCCC(=O)N[C@@H](Cc1c[nH]cn1)C(=O)NCCOCCOCC(=O)N[C@H](C(=O)N[C@@H](CCCCN)C(=O)N[C@@H](CCCCN)C(=O)N[C@H](C(=O)N[C@@H](CC(C)C)C(=O)N[C@@H](CO)C(=O)N[C@@H](CCCCN)C(=O)N[C@H](C(=O)N[C@@H](CCCCN)C(=O)N[C@@H](CCCCN)C(=O)N[C@@H](CC(C)C)C(=O)N[C@@H](CC(C)C)C(N)=O)[C@@H](C)CC)[C@@H](C)CC)[C@@H](C)CC` [C12-CAR-PEG-DK5] ({Lauroyl-βAla}-H[AEEA]IKKILSKIKKLL-NH2), the “MIC100” value came to 12.5 mg/L (≈ 6.38 µM) in data set [2] (setting [9]); 25 mg/L (≈ 12.8 µM) in data set [3] (setting [10]); 12.5 mg/L (≈ 6.38 µM) in data set [4]; 6.25 mg/L (≈ 3.19 µM) in data set [1]; 12.5 mg/L (≈ 6.38 µM) in data set [5] (K.pneumoniae ATCC 13883). Besides, the pKITC in data set [6] came out at 5.38 ± 0.14.

Regarding `CC[C@H](C)[C@H](NC(=O)COCCOCCNC(=O)[C@H](Cc1c[nH]cn1)NC(=O)CCN)C(=O)N[C@@H](CCCCN)C(=O)N[C@@H](CCCCN)C(=O)N[C@H](C(=O)N[C@@H](CC(C)C)C(=O)N[C@@H](CO)C(=O)N[C@@H](CCCCN)C(=O)N[C@H](C(=O)N[C@@H](CCCCN)C(=O)N[C@@H](CCCCN)C(=O)N[C@@H](CC(C)C)C(=O)N[C@@H](CC(C)C)C(N)=O)[C@@H](C)CC)[C@@H](C)CC` [CAR-PEG-DK5] (H-[βAla]H[AEEA]IKKILSKIKKLL-NH2; N-terminus and C-terminus assumed), the “MIC100” value in data set [2] (PA1, 24 h) is 100 mg/L (≈ 56.3 µM); in data set [3] (PA2, 24 h) it was 100 mg/L (≈ 56.3 µM); in data set [4], over 200 mg/L; in data set [1], over 50 mg/L; in data set [5] (ATCC 13883, 24 h) it was over 200 mg/L.

Take `CC[C@H](C)[C@H](NC(=O)COCCOCCNC(=O)[C@H](Cc1c[nH]cn1)NC(=O)CCNC(=O)CCCCCN)C(=O)N[C@@H](CCCCN)C(=O)N[C@@H](CCCCN)C(=O)N[C@H](C(=O)N[C@@H](CC(C)C)C(=O)N[C@@H](CO)C(=O)N[C@@H](CCCCN)C(=O)N[C@H](C(=O)N[C@@H](CCCCN)C(=O)N[C@@H](CCCCN)C(=O)N[C@@H](CC(C)C)C(=O)N[C@@H](CC(C)C)C(N)=O)[C@@H](C)CC)[C@@H](C)CC` [AHX-CAR-PEG-DK5] (H-[Ahx][βAla]H[AEEA]IKKILSKIKKLL-NH2): the MIC100 in data set [1] was over 50 mg/L.

`CCCCCCCCCCCCCCCC(=O)NCCC(=O)N[C@@H](Cc1c[nH]cn1)C(=O)NCCOCCOCC(=O)N[C@H](C(=O)N[C@@H](CCCCN)C(=O)N[C@@H](CCCCN)C(=O)N[C@H](C(=O)N[C@@H](CC(C)C)C(=O)N[C@@H](CO)C(=O)N[C@@H](CCCCN)C(=O)N[C@H](C(=O)N[C@@H](CCCCN)C(=O)N[C@@H](CCCCN)C(=O)N[C@@H](CC(C)C)C(=O)N[C@@H](CC(C)C)C(N)=O)[C@@H](C)CC)[C@@H](C)CC)[C@@H](C)CC` [C16-CAR-PEG-DK5] ({Palmitoyl-βAla}-H[AEEA]IKKILSKIKKLL-NH2) yielded an MIC100 in data set [1] of over 50 mg/L.

The compound `CCCCCCCCCCCCCCCC(=O)N[C@H](C(=O)N[C@@H](CCCCN)C(=O)N[C@@H](CCCCN)C(=O)N[C@H](C(=O)N[C@@H](CC(C)C)C(=O)N[C@@H](CO)C(=O)N[C@@H](CCCCN)C(=O)N[C@H](C(=O)N[C@@H](CCCCN)C(=O)N[C@@H](CCCCN)C(=O)N[C@@H](CC(C)C)C(=O)N[C@@H](CC(C)C)C(N)=O)[C@@H](C)CC)[C@@H](C)CC)[C@@H](C)CC` [Compound C16-DK5] (Palmitoyl-IKKILSKIKKLL-NH2) returned an MIC100 in data set [1] of over 50 mg/L.

Consider `CCCCCCCCCCCC(=O)N[C@H](C(=O)N[C@@H](CCCCN)C(=O)N[C@@H](CCCCN)C(=O)N[C@H](C(=O)N[C@@H](CC(C)C)C(=O)N[C@@H](CO)C(=O)N[C@@H](CCCCN)C(=O)N[C@H](C(=O)N[C@@H](CCCCN)C(=O)N[C@@H](CCCCN)C(=O)N[C@@H](CC(C)C)C(=O)N[C@@H](CC(C)C)C(N)=O)[C@@H](C)CC)[C@@H](C)CC)[C@@H](C)CC` [Compound C12-DK5] (Lauroyl-IKKILSKIKKLL-NH2), for which the MIC in data set [7] is 25 mg/L. Further, the “MIC100” value in data set [2] (setting [9]) is 50 mg/L (≈ 31.1 µM); in data set [3] (setting [10]), 50 mg/L (≈ 31.1 µM); in data set [4] it was 25 mg/L (≈ 15.6 µM); in data set [1] it was 6.25 mg/L (≈ 3.89 µM); in data set [5] (K.pneumoniae ATCC 13883) it was 25 mg/L (≈ 15.6 µM). The same compound came in with a pKITC in data set [6] of 4.40 ± 0.19.

As for `CCCCC(=O)NCCC(=O)N[C@@H](Cc1c[nH]cn1)C(=O)NCCOCCOCC(=O)N[C@H](C(=O)N[C@@H](CCCCN)C(=O)N[C@@H](CCCCN)C(=O)N[C@H](C(=O)N[C@@H](CC(C)C)C(=O)N[C@@H](CO)C(=O)N[C@@H](CCCCN)C(=O)N[C@H](C(=O)N[C@@H](CCCCN)C(=O)N[C@@H](CCCCN)C(=O)N[C@@H](CC(C)C)C(=O)N[C@@H](CC(C)C)C(N)=O)[C@@H](C)CC)[C@@H](C)CC)[C@@H](C)CC` [C5-CAR-PEG-DK5] ({Pentanoyl-βAla}-H[AEEA]IKKILSKIKKLL-NH2), in data set [8], the share remaining at 5 h, 75 µg/mL is 77%. Moreover, in data set [1], the MIC100 is over 50 mg/L.
